Results as given in patent US8268961B2, “Antibacterial peptides and analogues thereof” (Universita Degli Studi di Siena, priority 2004, dated 2012).
“Also recorded” adds a separate entry of the source. Like-named read-outs stand apart in the source and are kept apart here. Positions of bridges follow the written chain, without caps; N, C: chain ends. Chains are numbered I, II in the order given. No end group written: not given here.

Legend:
[1] = test system: E. coli plasmid vector pCEP4 DNA; test: DNA binding assay (gel retardation)
Procedure: In an attempt to clarify the molecular mechanism of action, the authors examined the binding properties on DNA exerted by M6 dendrimeric peptide and magainin 2, an antimicrobial peptide which has a pore-forming activity on the cell membrane. The DNA binding abilities of M6 and magainin 2 were examined by analyzing the electrophoretic mobility of DNA bands at the various weight ratios of peptides to DNA on a 1% (w/v) agarose gel.
Gel-retardation experiments were performed by mixing 200 ng of the E. coli plasmid vector pCEP4 (Invitrogen) with increasing amounts of M6 peptide in 20 μl of binding buffer (5% glycerol, 10 mM Tris-HCl (pH 8.0), 1 mM EDTA, 1 mM DTT, 20 mM KCl and 50 μg/ml BSA). The reaction mixtures were incubated at room temperature for 1 h. Subsequently, 4 μl of native loading buffer was added (40% saccarose, 0.25% bromophenol blue) and an aliquot of 12 μl was applied to a 1% agarose gel electrophoresis in 1 mM Tris borate-EDTA buffer.

[2] = test system: Burkholderia cepacia SMC71; assay type: cell-based
How it was run: (§1)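 MIC, given in molar units, was taken as the lowest concentration without visible growth after 24 h at 37° C. Testing followed the NCCLS microdilution method using cation-supplemented Mueller-Hinton broth and 5×10^4 CFU per well.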

[3] = test system: Pseudomonas aeruginosa VA463/98; assay type: cell-based
How it was run: as §1

[4] = test system: Acinetobacter baumannii AB7MG; assay type: cell-based
How it was run: as §1

[5] = test system: Escherichia coli W99FI0077; assay type: cell-based; conditions: W99FI0077
How it was run: as §1

[6] = test system: Klebsiella pneumoniae W03NO0078; assay type: cell-based
How it was run: as §1

[7] = test system: Citrobacter freundii W99FI00007; assay type: cell-based
How it was run: as §1

[8] = test system: Escherichia coli ATCC 25922; assay type: cell-based; conditions: ATCC 25922
How it was run: as §1

[9] = test system: Enterobacter cloacae W03AN0041; assay type: cell-based
How it was run: as §1

[10] = test system: Escherichia coli W03NO0013; assay type: cell-based
How it was run: as §1

[11] = test system: Pseudomonas aeruginosa 885149; assay type: cell-based; conditions: 885149
How it was run: as §1

[12] = test system: Proteus mirabilis W03VA1144; assay type: cell-based
How it was run: as §1

[13] = test system: Staphylococcus aureus ATCC 25923; assay type: cell-based; conditions: Staphylococcus aureus ATCC 25923, reference strain
How it was run: (§2)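 cation-suppl. MH broth, std microdilution (NCCLS); 5×10^4 CFU/well; 24 h, 37° C; visual read; MIC = lowest conc. with no visible growth, molar units.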

[14] = test system: Pseudomonas aeruginosa ATCC27853; assay type: cell-based; conditions: ATCC27853
How it was run: as §2

[15] = test system: Pseudomonas aeruginosa 891; assay type: cell-based; conditions: 891
How it was run: as §1

[16] = test system: Escherichia coli W03BG0025; assay type: cell-based
How it was run: as §1

[17] = test system: Klebsiella oxytoca W99FI00049; assay type: cell-based
How it was run: as §1

[18] = test system: Enterobacter aerogenes W03BG0067; assay type: cell-based
How it was run: as §1

[19] = test system: Klebsiella pneumoniae W99FI0057; assay type: cell-based; conditions: W99FI0057
How it was run: as §1

[20] = test system: Acinetobacter baumannii AB1MG; assay type: cell-based
How it was run: as §1

[21] = test system: Klebsiella pneumoniae W03BG0019; assay type: cell-based
How it was run: as §1

[22] = LPS binding by Plasmon Surface Resonance (Biacore); conditions: M6 immobilised on BIACORE sensorchip
Procedure: FIG. 11. Binding analysis between MAP M6 peptide and LPS in BIACORE. […] On the y-axis are shown the Units of Response derived from the binding between LPS and M6 as a function of time expressed in seconds (on the x-axis)
The ability of MAP peptides to perforate the bacterial membrane was evaluated measuring the activity of cytoplasmatic beta-galactosidase (24) in surpernatants of E. coli strain ML-35 incubated with the peptide and using p-nitrophenyl-β-D-galactopyranoside (pNPG) as a substrate. pNPG is digested by beta-galactosidase, therefore releasing p-nitro-phenolate detectable by spectrophotometric reading at 420 nm (FIG. 10). […] The activity of dendrimeric peptides against the inner membrane was evaluated at concentrations of 16, 32 and 64 μg/ml. All dendrimeric peptides permeabilized bacterial inner membrane at 16 μg/ml (FIG. 9). Permeabilization occurred after a lag of less than 1 minute, and the rate of permeabilization depended on peptide concentration (not shown). Moreover, the ability of the M6 MAP peptide to bind the bacterial lipopolysaccharide (LPS) was assayed by Plasmon Surface Resonance in a Biacore 1000 instrument (FIG. 11) using a protocol perfected by the authors (26).

I: QKKIRVRLSAKKA-OH / II: QKKIRVRLSAK / III: QKKIRVRLSA / IV: QKKIRVRLSA (amide I:11-IV:C, I:12-II:C, II:11-III:C) [M6, QKKIRVRLSA]
Weight ratio of peptide to DNA at which migration of DNA is inhibited ([1]; 200 ng pCEP4, 1% agarose gel, 1 h room temperature): > 0.2
DNA binding tightness relative to magainin 2 ([1]; from gel retardation weight ratios): over 25 times
MIC (Molarity) [2]: 12 µM
MIC (Molarity) [3]: 0.76 µM
MIC (Molarity) [4]: 6 µM
MIC (Molarity) [5]: 1.5 µM
MIC (Molarity) [6]: 3 µM
MIC (Molarity) [7]: 3 µM
MIC (Molarity) [8]: 1.5 µM
MIC (Molarity) [9]: 0.76 µM
MIC (Molarity) [10]: 1.5 µM
MIC (Molarity) [11]: 1.5 µM
MIC (Molarity) [12]: 12 µM
MIC (Molarity) [13]: >4.9e-05 M
MIC (Molarity) ([13]; listed as QKKIRVRLSA): ~10^−5 M
MIC (Molarity) [14]: 0.76 µM
MIC (Molarity) [15]: 1.5 µM
MIC (Molarity) [16]: 1.5 µM
MIC (Molarity) [17]: 12 µM
MIC (Molarity) [18]: 1.5 µM
MIC (Molarity) [19]: 0.76 µM
MIC (Molarity) [20]: 3 µM
MIC (Molarity) [21]: 1.5 µM
Binding to bacterial lipopolysaccharide (LPS), sensorgram [22]: effectively binds; also recorded: rapid binding
